Data: patent US12358886B2, “Heterocyclic compounds for use in the treatment of cancer” (Artios Pharma Limited, priority 2019, dated 2025)

What follows are compounds tested against Polθ protein (amino acids 2-2590) (Homo sapiens, UniProt O75417) (assay: Polθ full length enzyme potency assay (PicoGreen)). Details: Polθ IC50 (nM), full length N-His, C-term FLAG tagged Polθ, PicoGreen fluorescence, 12 point concentration response.
Polθ protein (amino acids 2-2590), sequence (O75417 2-2590): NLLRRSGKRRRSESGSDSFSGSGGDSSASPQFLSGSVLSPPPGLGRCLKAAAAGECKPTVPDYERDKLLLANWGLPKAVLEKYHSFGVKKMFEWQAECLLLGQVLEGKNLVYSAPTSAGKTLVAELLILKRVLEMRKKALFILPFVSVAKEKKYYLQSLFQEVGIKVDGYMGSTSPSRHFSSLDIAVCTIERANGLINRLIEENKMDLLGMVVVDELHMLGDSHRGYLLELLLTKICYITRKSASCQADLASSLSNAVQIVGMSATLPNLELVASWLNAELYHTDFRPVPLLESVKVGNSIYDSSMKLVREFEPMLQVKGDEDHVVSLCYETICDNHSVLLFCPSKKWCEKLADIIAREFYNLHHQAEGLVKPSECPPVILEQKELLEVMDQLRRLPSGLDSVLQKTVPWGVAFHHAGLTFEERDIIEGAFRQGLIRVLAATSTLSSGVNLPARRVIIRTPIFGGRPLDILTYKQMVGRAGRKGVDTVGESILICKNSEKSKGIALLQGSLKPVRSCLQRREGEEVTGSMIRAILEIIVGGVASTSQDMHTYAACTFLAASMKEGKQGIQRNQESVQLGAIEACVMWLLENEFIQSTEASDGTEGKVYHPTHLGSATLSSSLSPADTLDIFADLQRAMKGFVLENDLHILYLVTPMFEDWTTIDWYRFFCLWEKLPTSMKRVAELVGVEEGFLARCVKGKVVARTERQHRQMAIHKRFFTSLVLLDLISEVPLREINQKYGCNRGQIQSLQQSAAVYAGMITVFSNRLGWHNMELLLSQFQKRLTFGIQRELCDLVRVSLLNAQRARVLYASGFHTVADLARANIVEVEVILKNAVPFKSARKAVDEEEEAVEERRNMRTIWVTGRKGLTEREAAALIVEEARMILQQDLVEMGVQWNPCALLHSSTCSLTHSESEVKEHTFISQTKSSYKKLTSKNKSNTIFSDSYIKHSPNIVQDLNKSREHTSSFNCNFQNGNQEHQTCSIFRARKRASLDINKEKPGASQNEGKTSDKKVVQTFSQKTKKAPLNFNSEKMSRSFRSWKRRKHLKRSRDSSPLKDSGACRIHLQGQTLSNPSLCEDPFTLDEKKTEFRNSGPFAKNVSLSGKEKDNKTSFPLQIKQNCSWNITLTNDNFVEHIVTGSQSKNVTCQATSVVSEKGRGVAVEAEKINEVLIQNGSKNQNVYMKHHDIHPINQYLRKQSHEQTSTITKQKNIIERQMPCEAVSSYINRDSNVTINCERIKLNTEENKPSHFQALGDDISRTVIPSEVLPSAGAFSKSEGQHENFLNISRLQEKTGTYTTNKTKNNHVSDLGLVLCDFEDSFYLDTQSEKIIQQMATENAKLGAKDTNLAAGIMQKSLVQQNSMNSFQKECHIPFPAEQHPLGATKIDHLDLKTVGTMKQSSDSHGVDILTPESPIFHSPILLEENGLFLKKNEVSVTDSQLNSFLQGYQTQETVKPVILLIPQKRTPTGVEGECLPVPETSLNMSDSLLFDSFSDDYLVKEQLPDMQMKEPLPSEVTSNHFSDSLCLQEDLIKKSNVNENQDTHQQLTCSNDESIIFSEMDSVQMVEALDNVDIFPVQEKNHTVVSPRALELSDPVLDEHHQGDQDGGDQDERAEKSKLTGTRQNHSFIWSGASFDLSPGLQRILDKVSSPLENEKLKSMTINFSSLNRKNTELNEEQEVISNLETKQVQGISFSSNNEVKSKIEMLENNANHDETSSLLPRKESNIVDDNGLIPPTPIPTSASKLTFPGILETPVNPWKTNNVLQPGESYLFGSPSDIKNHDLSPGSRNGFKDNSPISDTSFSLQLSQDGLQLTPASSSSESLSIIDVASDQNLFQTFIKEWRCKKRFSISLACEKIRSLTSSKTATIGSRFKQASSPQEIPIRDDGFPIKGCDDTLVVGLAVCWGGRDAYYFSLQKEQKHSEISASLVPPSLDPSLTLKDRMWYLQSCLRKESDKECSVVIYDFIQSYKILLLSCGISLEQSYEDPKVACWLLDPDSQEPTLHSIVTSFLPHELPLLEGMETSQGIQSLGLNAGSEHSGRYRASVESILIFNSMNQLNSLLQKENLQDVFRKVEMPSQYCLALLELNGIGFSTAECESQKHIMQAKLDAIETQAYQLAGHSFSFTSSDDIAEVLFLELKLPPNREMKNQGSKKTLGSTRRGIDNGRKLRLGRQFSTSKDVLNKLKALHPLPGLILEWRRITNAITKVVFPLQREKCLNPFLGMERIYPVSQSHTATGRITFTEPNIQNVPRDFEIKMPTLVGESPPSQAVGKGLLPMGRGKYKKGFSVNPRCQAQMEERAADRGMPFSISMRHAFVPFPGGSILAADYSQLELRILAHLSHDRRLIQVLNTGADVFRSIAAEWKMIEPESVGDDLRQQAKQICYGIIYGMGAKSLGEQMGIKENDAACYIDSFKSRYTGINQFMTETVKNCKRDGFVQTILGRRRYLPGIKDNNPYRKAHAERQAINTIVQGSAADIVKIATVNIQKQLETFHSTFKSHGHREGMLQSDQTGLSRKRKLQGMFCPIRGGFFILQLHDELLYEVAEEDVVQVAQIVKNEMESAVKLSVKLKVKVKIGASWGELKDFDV
Procedure: Polθ Full Length Enzyme Potency Assay
PicoGreen assay was used to measure the ability of compounds to inhibit the activity of Polθ in vitro. […] DMSO concentration was maintained at 1% by back filling with DMSO solution. […] This was dispensed into each well of the compound plate using a VIAFLO 16 channel manual pipette (Integra) and pre-incubated at rt for 30 min. 3 μL of 2× working solution of dNTPs (40 μM) (dATP, dCTP, dGTP, dTTP; Sigma D6500, D4635, D4010, T0251) diluted in assay buffer was then added and the reaction incubated for 60 min at rt. The reaction was stopped by addition of 10 mM EDTA, 25 mM Tris pH 7.5 and 1:200 dilution of PicoGreen dye (Invitrogen P7581).
Compound `Cc1cc(C(F)(F)F)cc(N2C(=O)[C@@H](O)[C@@H](O)[C@H]2C(=O)N(C)c2ccc(Cl)cc2F)n1` [Example 165, (2S,3S,4S)—N-(4-Chloro-2-fluorophenyl)-3,4-dihydroxy-N-methyl-1-(6-methyl-4-(trifluoromethyl)pyridin-2-yl)-5-oxopyrrolidine-2-carboxamide] has an IC50 of 20 nM.
`Cc1cc(C(F)(F)F)cc(N2C(=O)[C@@H](O)[C@@H](O)[C@H]2C(=O)N(C)c2ccc3cc[nH]c3n2)n1` [Example 166, (2S,3S,4S)-3,4-Dihydroxy-N-methyl-1-(6-methyl-4-(trifluoromethyl)pyridin-2-yl)-5-oxo-N-(1H-pyrrolo[2,3-b]pyridin-6-yl)pyrrolidine-2-carboxamide] was tested, and the IC50 was 7 nM.
Compound `Cc1cc(C(F)(F)F)cc(N2C(=O)[C@@H](O)[C@@H](O)[C@H]2C(=O)N(C)c2ccc3ccn(C)c3n2)n1` [Example 167, (2S,3S,4S)-3,4-Dihydroxy-N-methyl-N-(1-methyl-1H-pyrrolo[2,3-b]pyridin-6-yl)-1-(6-methyl-4-(trifluoromethyl)pyridin-2-yl)-5-oxopyrrolidine-2-carboxamide] has an IC50 of 56 nM.
`Cc1cc(C(F)(F)F)cc(N2C(=O)[C@@H](O)[C@@H](O)[C@H]2C(=O)N(C)c2ccc3cnn(C)c3c2)n1` [Example 168, (2S,3S,4S)-3,4-Dihydroxy-N-methyl-N-(1-methyl-1H-indazol-6-yl)-1-(6-methyl-4-(trifluoromethyl)pyridin-2-yl)-5-oxopyrrolidine-2-carboxamide] gave an IC50 of 71 nM.
Work on `Cc1cc(C(F)(F)F)cc(N2C(=O)[C@@H](O)[C@@H](O)[C@H]2C(=O)N(C)c2ccc3c(n2)N(C)CCO3)n1` [Example 169, (2S,3S,4S)-3,4-Dihydroxy-N-methyl-N-(4-methyl-3,4-dihydro-2H-pyrido[3,2-b][1,4]oxazin-6-yl)-1-(6-methyl-4-(trifluoromethyl)pyridin-2-yl)-5-oxopyrrolidine-2-carboxamide] yielded an IC50 of 106 nM.
`Cc1cc(C(F)(F)F)cc(N2C(=O)[C@@H](O)[C@@H](O)[C@H]2C(=O)N(C)c2ccc(F)c(C)n2)n1` [Example 170, (2S,3S,4S)—N-(5-Fluoro-6-methylpyridin-2-yl)-3,4-dihydroxy-N-methyl-1-(6-methyl-4-(trifluoromethyl)pyridin-2-yl)-5-oxopyrrolidine-2-carboxamide] was tested, and the IC50 was 193 nM.
With `Cc1cc(C(F)(F)F)cc(N2C(=O)OC[C@H]2C(=O)N(C)c2ccc(Cl)cc2Cl)n1` [Example 171, (S)-N-(2,4-Dichlorophenyl)-N-methyl-3-(6-methyl-4-(trifluoromethyl)pyridin-2-yl)-2-oxooxazolidine-4-carboxamide] the IC50 was 68 nM.
With `Cc1cc(C(F)(F)F)cc(N2C(=O)OC[C@H]2C(=O)N(C)c2ccc(Br)c(Cl)c2)n1` [Example 172, (S)-N-(4-Bromo-3-chlorophenyl)-N-methyl-3-(6-methyl-4-(trifluoromethyl)pyridin-2-yl)-2-oxooxazolidine-4-carboxamide] the IC50 was 20 nM.
`Cc1cc(C(F)(F)F)cc(N2C(=O)OC[C@H]2C(=O)N(C)c2ccc(C3CC3)c(Cl)c2)n1` [Example 173, (S)—N-(3-Chloro-4-cyclopropylphenyl)-N-methyl-3-(6-methyl-4-(trifluoromethyl)pyridin-2-yl)-2-oxooxazolidine-4-carboxamide] showed an IC50 of 13 nM.
`Cc1cc(C(F)(F)F)cc(N2C(=O)OC[C@H]2C(=O)N(C)c2ccc3cn[nH]c3c2)n1` [Example 174, (S)—N-(1H-Indazol-6-yl)-N-methyl-3-(6-methyl-4-(trifluoromethyl)pyridin-2-yl)-2-oxooxazolidine-4-carboxamide] gave an IC50 of 158 nM.
Work on `Cc1cc(C(F)(F)F)cc(N2C(=O)OC[C@H]2C(=O)N(C)c2cccc(N)n2)n1` [Example 175, (S)—N-(6-Aminopyridin-2-yl)-N-methyl-3-(6-methyl-4-(trifluoromethyl)pyridin-2-yl)-2-oxooxazolidine-4-carboxamide] yielded an IC50 of 519 nM.
For `CNc1cccc(N(C)C(=O)[C@@H]2COC(=O)N2c2cc(C(F)(F)F)cc(C)n2)n1` [Example 176, (S)—N-Methyl-3-(6-methyl-4-(trifluoromethyl)pyridin-2-yl)-N-(6-(methylamino)pyridin-2-yl)-2-oxooxazolidine-4-carboxamide], the IC50 was 94 nM.
With `Cc1cc(C(F)(F)F)cc(N2C(=O)OC[C@H]2C(=O)N(C)c2cccc(N(C)C)n2)n1` [Example 177, (S)—N-(6-(Dimethylamino)pyridin-2-yl)-N-methyl-3-(6-methyl-4-(trifluoromethyl)pyridin-2-yl)-2-oxooxazolidine-4-carboxamide] the IC50 was 109 nM.
Work on `Cc1cc(C(F)(F)F)cc(N2C(=O)OC[C@H]2C(=O)N(C)c2ccc3cccnc3c2)n1` [Example 178, (S)—N-Methyl-3-(6-methyl-4-(trifluoromethyl)pyridin-2-yl)-2-oxo-N-(quinolin-7-yl)oxazolidine-4-carboxamide] yielded an IC50 of 833 nM.
Compound `Cc1cc(C(F)(F)F)cc(N2C(=O)NC[C@H]2C(=O)N(c2ccc(F)c(Cl)c2)C(C)C)n1` [Example 179, (S)—N-(3-Chloro-4-fluorophenyl)-N-isopropyl-3-(6-methyl-4-(trifluoromethyl)pyridin-2-yl)-2-oxoimidazolidine-4-carboxamide] has an IC50 of 15 nM.
`Cc1cc(C(F)(F)F)cc(N2C(=O)N(CCS(C)(=O)=O)C[C@H]2C(=O)N(C)c2ccc(F)c(Cl)c2)n1` [Example 180, (S)—N-(3-Chloro-4-fluorophenyl)-N-methyl-3-(6-methyl-4-(trifluoromethyl)pyridin-2-yl)-1-(2-(methylsulfonyl)ethyl)-2-oxoimidazolidine-4-carboxamide] gave an IC50 of 9 nM.
Work on `Cc1cc(C(F)(F)F)cc(N2C(=O)N(CCS(=O)(=O)N(C)C)C[C@H]2C(=O)N(C)c2ccc(F)c(Cl)c2)n1` [Example 181, (S)—N-(3-Chloro-4-fluorophenyl)-1-(2-(N,N-dimethylsulfamoyl)ethyl)-N-methyl-3-(6-methyl-4-(trifluoromethyl)pyridin-2-yl)-2-oxoimidazolidine-4-carboxamide] yielded an IC50 of 45 nM.
`Cc1cc(C(F)(F)F)cc(N2C(=O)N(CCN(C)C)C[C@H]2C(=O)N(C)c2ccc(F)c(Cl)c2)n1` [Example 182, (S)-N-(3-Chloro-4-fluorophenyl)-1-(2-(dimethylamino)ethyl)-N-methyl-3-(6-methyl-4-(trifluoromethyl)pyridin-2-yl)-2-oxoimidazolidine-4-carboxamide] gave an IC50 of 61 nM.
`Cc1cc(C(F)(F)F)cc(N2C(=O)N(CCCN(C)C)C[C@H]2C(=O)N(C)c2ccc(F)c(Cl)c2)n1` [Example 183, (S)-N-(3-Chloro-4-fluorophenyl)-1-(3-(dimethylamino)propyl)-N-methyl-3-(6-methyl-4-(trifluoromethyl)pyridin-2-yl)-2-oxoimidazolidine-4-carboxamide] showed an IC50 of 24 nM.
Work on `Cc1cc(C(F)(F)F)cc(N2C(=O)N(CC(N)=O)C[C@H]2C(=O)N(C)c2ccc(F)c(Cl)c2)n1` [Example 184, (S)-1-(2-Amino-2-oxoethyl)-N-(3-chloro-4-fluorophenyl)-N-methyl-3-(6-methyl-4-(trifluoromethyl)-pyridin-2-yl)-2-oxoimidazolidine-4-carboxamide] yielded an IC50 of 13 nM.
Compound `Cc1cc(C(F)(F)F)cc(N2C(=O)N(CC(=O)N(C)C)C[C@H]2C(=O)N(C)c2ccc(F)c(Cl)c2)n1` [Example 185, (S)-N-(3-Chloro-4-fluorophenyl)-1-(2-(dimethylamino)-2-oxoethyl)-N-methyl-3-(6-methyl-4-(trifluoromethyl)pyridin-2-yl)-2-oxoimidazolidine-4-carboxamide] has an IC50 of 10 nM.
`Cc1cc(C(F)(F)F)cc(N2C(=O)N(CC3(CO)COC3)C[C@H]2C(=O)N(C)c2ccc(F)c(Cl)c2F)n1` [Example 186, (S)-N-(3-Chloro-2,4-difluoro-phenyl)-1-((3-(hydroxymethyl)-oxetan-3-yl)methyl)-N-methyl-3-(6-methyl-4-(trifluoromethyl)-pyridin-2-yl)-2-oxoimidazolidine-4-carboxamide] was tested, and the IC50 was 9 nM.
Work on `Cc1cc(C(F)(F)F)cc(N2C(=O)N(CCNS(C)(=O)=O)C[C@H]2C(=O)N(C)c2ccc(F)c(Cl)c2)n1` [Example 187, (S)—N-(3-Chloro-4-fluorophenyl)-N-methyl-3-(6-methyl-4-(trifluoromethyl)pyridin-2-yl)-1-(2-(methylsulfonamido)ethyl)-2-oxoimidazolidine-4-carboxamide] yielded an IC50 of 22 nM.
In the case of `Cc1cc(C(F)(F)F)cc(N2C(=O)N(CC3CNC3)C[C@H]2C(=O)N(C)c2ccc(F)c(Cl)c2F)n1` [Example 188, (S)-1-(Azetidin-3-ylmethyl)-N-(3-chloro-2,4-difluorophenyl)-N-methyl-3-(6-methyl-4-(trifluoromethyl)pyridin-2-yl)-2-oxoimidazolidine-4-carboxamide], the IC50 is reported as 18 nM.
For `Cc1cc(C(F)(F)F)cc(N2C(=O)N(CC3CN(C)C3)C[C@H]2C(=O)N(C)c2ccc(F)c(Cl)c2F)n1` [Example 189, (S)—N-(3-Chloro-2,4-difluorophenyl)-N-methyl-3-(6-methyl-4-(trifluoromethyl)pyridin-2-yl)-1-((1-methylazetidin-3-yl)methyl)-2-oxoimidazolidine-4-carboxamide], the IC50 was 32 nM.
`Cc1cc(C(F)(F)F)cc(N2C(=O)N(CCC(=O)N(C)C)C[C@H]2C(=O)N(C)c2ccc(F)c(Cl)c2)n1` [Example 190, (S)—N-(3-Chloro-4-fluorophenyl)-1-(3-(dimethylamino)-3-oxopropyl)-N-methyl-3-(6-methyl-4-(trifluoromethyl)pyridin-2-yl)-2-oxoimidazolidine-4-carboxamide] gave an IC50 of 13 nM.
For `CNC(=O)CCN1C[C@@H](C(=O)N(C)c2ccc(F)c(Cl)c2)N(c2cc(C(F)(F)F)cc(C)n2)C1=O` [Example 191, (S)—N-(3-Chloro-4-fluorophenyl)-N-methyl-3-(6-methyl-4-(trifluoromethyl)pyridin-2-yl)-1-(3-(methylamino)-3-oxopropyl)-2-oxoimidazolidine-4-carboxamide], the IC50 was 12 nM.
`Cc1cc(C(F)(F)F)cc(N2C(=O)N(CCN3CCNCC3)C[C@H]2C(=O)N(C)c2ccc(F)c(Cl)c2F)n1` [Example 192, (S)—N-(3-Chloro-2,4-difluorophenyl)-N-methyl-3-(6-methyl-4-(trifluoromethyl)pyridin-2-yl)-2-oxo-1-(2-(piperazin-1-yl)ethyl)imidazolidine-4-carboxamide] showed an IC50 of 9 nM.
